Assay results reported in patent US11173143B2, “Composition for decreasing serum uric acid level” (ASAHI GROUP HOLDINGS, LTD., priority 2017, dated 2021).

System: serum uric acid
Test: Serum uric acid level after 8 weeks of daily intake in subjects with hyperuricemia
Format: in vivo, human
Conditions: for Serum uric acid level, After 8 weeks: daily intake
Experimental: Tests were conducted with subjects with hyperuricemia having high serum uric acid levels (7.1 mg/dl or higher) after their written informed consents were obtained. […] Their serum uric acid levels were measured before the intake and after 8 weeks of the intake. A sign test was used as the test of significance.

Structure (SMILES): NCC(=O)O [Gly, glycine]
- Amount of change (Average of the group (n=4)): -0.13 mg/dL
- Serum uric acid level, Before start of intake (Average of the group (n=4)): 7.73 mg/dL
- Serum uric acid level, After 8 weeks (Average of the group (n=4)): 7.60 mg/dL
- Amount of change (Subject A): 0.4 mg/dL
- Serum uric acid level, Before start of intake (Subject A): 8.9 mg/dL
- Serum uric acid level, After 8 weeks (Subject A): 9.3 mg/dL
- Amount of change (Subject B): 0.0 mg/dL
- Serum uric acid level, Before start of intake (Subject B): 7.8 mg/dL
- Serum uric acid level, After 8 weeks (Subject B): 7.8 mg/dL
- Amount of change (Subject C): -0.5 mg/dL
- Serum uric acid level, Before start of intake (Subject C): 7.1 mg/dL
- Serum uric acid level, After 8 weeks (Subject C): 6.6 mg/dL
- Amount of change (Subject D): -0.4 mg/dL
- Serum uric acid level, Before start of intake (Subject D): 7.1 mg/dL
- Serum uric acid level, After 8 weeks (Subject D): 6.7 mg/dL
- Change of serum uric acid levels after 8 weeks of continuous intake (in words) (subjects with hyperuricemia): slightly decreased after 8 weeks of continuous intake, but the decreases were not significant
